# Measurements reported in PubChem BioAssay (NCI).
# Values joined by “and” are separate entries in the source; they are usually repeats but may differ in a detail not shown here. Equal values may be shown once.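 Five compound concentrations were applied to cells in 96-well plates for 48 hours; endpoints were derived by simple linear interpolation of the resulting dose-response curve. GI50: concentration for 50% inhibition of growth. Definition used: TGI = concentration required for complete inhibition of growth.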
# Tested on: MDA-MB-468 breast
# Experiment: NCI tumour cell line growth inhibition, 48 h
Compound,GI50,TGI
C=C1C(=O)O[C@H]2[C@H]1CC/C(COC(=O)CSCC(=O)OC/C1=C/CC[C@@]3(C)O[C@H]3[C@H]3OC(=O)C(=C)[C@@H]3CC1)=C\CC[C@@]1(C)O[C@@H]21,1.42 µM,3.5 µM
COc1ccc2nc3cc(Cl)ccc3c(NCCCNCCC(C)O)c2c1 (stereo not drawn),0.313 µM,1.78 µM
C#CC(F)(F)[C@]1(O)CC[C@H]2[C@@H]3CCC4=CC(=O)CCC4=C3[C@@H](c3ccc(C(C)=O)cc3)C[C@@]21C,7.69 µM,34.1 µM
C=C1C(=O)O[C@H]2[C@H]1CC/C(COC(=O)NCCc1c[nH]c3ccc(OC)cc13)=C\CC[C@@]1(C)O[C@@H]21,1.19 µM,2.91 µM
COc1cc(/C=C2\CN(C)C/C(=C\c3cc(CN4CCCCC4)c(O)c(OC)c3)C2=O)cc(CN2CCCCC2)c1O,3.79 µM,14.7 µM
O=C(N/N=C/c1ccccc1O)C(=O)Nc1ccc(F)cc1,4.41 µM,> 100 µM
CC(C)NC(=O)OCc1c(COC(=O)NC(C)C)c(-c2ccc(Cl)cc2)n2c1CCC2,0.928 µM,2.5 µM
CCOP(=O)(OCC)OC[C@]12CCC(C)(C)C[C@H]1C1=CC[C@@H]3[C@@]4(C)C/C(=C\c5cccnc5)[C@H](OP(=O)(OCC)OCC)C(C)(C)[C@@H]4CC[C@@]3(C)[C@]1(C)CC2,1.12 µM,2.5 µM
Cc1cc(Nc2ncnc3ccc(NC4=NC(C)(C)CO4)cc23)ccc1Oc1ccn2ncnc2c1,1.78 µM and 2.18 µM,12.7 µM and > 10 µM
O=Nc1ccc2ccccc2c1O,13.4 µM,34.9 µM
COc1ccc2c(c1)C(=O)/C(=C/c1ncc([N+](=O)[O-])n1C)O2,1.7 µM,4.12 µM
O=C(CCl)N1c2ccccc2Sc2ccc3ccccc3c21,0.351 µM,1.46 µM
c1cn2cc(-c3ccc4cn[nH]c4c3)nc(Nc3ccc(N4CCOCC4)cc3)c2n1,8.59 µM,32.4 µM
N#CCc1ncc(-c2ccc(C(F)(F)F)cc2)c(NC2CCCCCC2)n1,> 10 µM,> 10 µM
COc1ccccc1/C=N\N=C(N/N=C/c1ccccc1OC)N/N=C/c1ccccc1OC,3.51 µM,10.7 µM
O=C(Nc1ccc(Cl)c(C(F)(F)F)c1)Nc1ccc2c(ccn2C(=O)c2cccc(F)c2)c1,1.83 µM,4.96 µM
C=CC(=O)N[C@H]1CCOC[C@H]1Nc1ncc2cc(-c3c(Cl)c(OC)cc(OC)c3Cl)ccc2n1,9.16 µM,44.7 µM
CSc1ccc2c3c(n(C[C@H](O)CO)c(=O)c2c1)-c1ccccc1C3=O,1.87 µM,5.78 µM
O=c1[nH]cnc2[nH]ncc12,152 µM,2680 µM
CC(=O)O/N=C1/C(c2c(O)[nH]c3cc(Br)ccc23)=Nc2ccccc21,1.64 µM,3.22 µM
C/C=C/CC(C)C(O)C1C(=O)NC(CC)C(=O)N(C)CC(=O)N(C)C(CC(C)C)C(=O)NC(C(C)C)C(=O)N(C)C(CC(C)C)C(=O)NC(C)C(=O)NC(C)C(=O)N(C)C(CC(C)C)C(=O)N(C)C(CC(C)C)C(=O)N(C)C(C(C)C)C(=O)N1C (stereo not drawn),0.872 µM,6.63 µM
O=C(N/N=C/c1ccc([N+](=O)[O-])cc1)c1ccc2nc(-c3ccc(Cl)cc3)[nH]c2c1,1.97 µM,4.79 µM

Compound,GI50,TGI
O=C(Nc1ccccc1O)c1ccc(Oc2cccc(C(=O)Nc3ccccc3O)c2)cc1,2.17 µM,8.16 µM
COC(=O)[C@]12CC[C@@H](C)[C@H](C)[C@@H]1C1=CC[C@@H]3[C@@]4(C)C=C(O)C(=O)[C@@]5(C)COC(=C54)C[C@@]3(C)[C@]1(C)CC2,4.88 µM,19.9 µM
NC1=NC(c2ccc(Cl)cc2)C2=C(N1)/C(=C/c1ccc(Cl)cc1)CCC2 (stereo not drawn),3.49 µM,13.9 µM
COc1ccc(C(=O)c2cc3c(OC)c(OC)c(OC)cc3[nH]2)cc1,2.64 µM,> 100 µM
COc1ccc2c(c1)C(c1ccccc1Cl)=Nc1c(n[nH]c1C)N2,> 16.8 µM,> 25 µM
Cn1cc(-c2cnc3ccc4ccc(CS(=O)(=O)NCc5ccccn5)cc4c(=O)c3c2)cn1,10.9 µM,29 µM
CCN1c2ccccc2C(Cl)(c2ccc(N(C)C)cc2)c2ccccc21,3.36 µM,15.5 µM
O=C(Cc1cccc(OC(F)(F)F)c1)Nc1ccc(CCCCc2nnc(NC(=O)Cc3ccccn3)s2)nn1,7.69 µM,58.5 µM
CCCCCCCCCCCCSC(=N)N,6.21 µM,20.5 µM
Cc1c2c[n+](C(C)C)ccc2c(C)c2c1[nH]c1ccccc12,0.312 µM,1.97 µM
Cc1cc(Cc2cc(C)cc(C(C)(C)C)c2O)c(O)c(C(C)(C)C)c1,11.4 µM,24.2 µM
NS(=O)(=O)c1cccc(N=Cc2c(O)[nH]c3ccccc23)c1,> 25 µM,> 25 µM
CN(C)C(=O)c1cc2cnc(Nc3ccc(-c4csc5c(=O)cc(N6CCOCC6)oc45)cc3)nc2n1C1CCCC1,0.122 µM,0.397 µM
COc1cc(-c2nc3sc4c(c3c(=O)[nH]2)CCCCCC4)cc(OC)c1OC,0.676 µM,3.01 µM
Cc1c(C)[n+](=O)c(C)c(C)n1[O-],> 100 µM,> 100 µM
COc1ccc(Cl)cc1NC(=O)C(Br)C(Br)C(=O)O (stereo not drawn),0.567 µM,2.27 µM
CN1CCN(Cc2ccc(NC(=O)c3ccc(C#Cc4c(N)ncc5ccc(F)cc45)cc3)cc2C(F)(F)F)CC1,0.998 µM,1.97 µM
Cc1cc(C)c(O)c(CN(C)Cc2cc(Cl)cc(Cl)c2O)c1,2.83 µM,11.8 µM
O=C(O)c1cc2cc(OCc3ccccc3)c(OCc3ccccc3)cc2[nH]1,17.9 µM,36.7 µM
O=c1cc(-c2ccccc2)[nH]n1-c1nc2ccccc2[nH]1,4.3 µM,45.9 µM
COc1cccc2c1C(=O)c1c(O)c3c(c(O)c1C2=O)C[C@@](O)(C(=O)CO)C[C@@H]3OC1C[C@H](N)[C@H](O)[C@H](C)O1 (stereo partly drawn),0.0253 µM,0.123 µM
O=C(Nc1ccc(Cl)cc1)c1cc(-c2ccc(Cl)cc2)c2sc(=O)[nH]c2n1,1.73 µM,6.62 µM
